Source: US7186825B2, “Conformationally restricted polyamine analogs as disease therapies” (Cellgate, Inc., priority 1999, dated 2007)
Read-outs that look alike come from different tables or passages of the source.

Columns and labels:
Type in all cases: cell-based
[1] = test system: human prostate cancer cells PC3; assay: MTT assay, survival/growth of cultured human prostate cancer cells PC3; settings: Homo sapiens; for EC50: PC-3, 144 h, figure legends, survival of cultured PC3 cells, MTT, six days after drug treatment, read-out: ED50 (the source's name)
Description: (§1) Human breast cancer cell line MCF7 was grown in Richter's Improved Modified Eagle's Medium supplemented with 10% fetal bovine serum (FBS) and 2.2 g/L sodium bicarbonate. Human brain tumor cell line U251 MG-NCI was grown in Dulbecco's Modified Eagle's Medium supplemented with 10% FBS. Human lung cancer cell line A549 was grown in Ham's F-12K medium (Cellgro, Mediatech, Inc., VA), supplemented with 10% FBS and 2 mM L-glutamine. Human colon cancer cell line HT29 was cultured in McCoy's 5A medium (Gibco, BRL, Gaithersburg, Md.) supplemented with 10% FBS. Human prostate cancer cell lines PC-3, LNCAP and DuPro were grown in RPMI 1640 Medium (Cellgro, Mediatech, Inc., VA) supplemented with 10% FBS. Another human prostate cancer cell line DU145 was grown in Dulbecco's Modified Eagle's Medium (Gibco, BRL, Gaithersburg, Md.) supplemented with 5% FBS. The A549, MCF7, PC3, LNCAP and DuPro cell lines were cultured in 100 units/mL penicillin and 100 μg/mL streptomycin. HT29 and U251MG cell lines were grown in 50 μg/mL gentamycin (Gibco, BRL, Gaithersburg, Md.). DU145 cell line was maintained in 1% antibitic-antimycotic solution (Sigma, St. Louis, Mo.). The cell cultures were maintained at 37° C. in 5% CO2/95% humidified air. DuPro cells were obtained from M. Eileen Dolan, University of Chicago. All other cells are available from the American Type Culture Collection, Rockville, Md.
(§2) A conventional MTT assay was used to evaluate percent cell survival. Exponentially growing monolayer cells were plated in 96-well plates at a density of 500 cells per well and allowed to grow for 24 hours. Serial dilutions of the drugs were added to the wells. Six days after drug treatment, 25 μl of MTT solution (5 mg/ml) was added to each well and incubated for 4 hours at 37° C. Then 100 μl of lysis buffer (20% sodium dodecyl sulfate, 50% DMF, and 0.8% acetic acid, pH 4.7) was added to each well and incubated for an additional 22 hours. A microplate reader (“EMAX”-brand, Molecular Devices, Sunnyvale, Calif.) set at 570 nm was used to determine the optical density of the cultures. Results are expressed as a ratio of the optical density in drug-treated wells to the optical density in wells treated with vehicle only.
(§3) Using the protocols of Example 2, the porphyrin-polyamine conjugates were tested for activity in vitro in various cancer cell lines.

[2] = test system: human prostate cancer cells DU145; assay: MTT assay, survival/growth of cultured human prostate cancer cells DU145; settings: Homo sapiens; for EC50: DU-145, 144 h, figure legends, survival of cultured DU145 cells, MTT, six days after drug treatment, read-out: ED50 (the source's name); for IC50: DU-145
Description: as §1, §2, §3

[3] = test system: human prostate cancer cells DUPRO; assay: MTT assay, survival/growth of cultured human prostate cancer cells DUPRO; settings: Homo sapiens
Description: as §1, §2, §3

[4] = test system: human colon cancer cells HT29; assay: MTT assay, survival/growth of cultured human colon cancer cells HT29; settings: Homo sapiens; for IC50: read-out: concentration needed for 50% growth inhibition (ID50), Table 3, HT-29
Description: (§4) As shown in Table 3 and FIGS. 1–32, several novel conformationally restricted polyamine analogs were tested for anti-proliferative properties against cancer cells.
as §1, §2

[5] = test system: human lung cancer cells A549; assay: MTT assay, survival/growth of cultured human lung cancer cells A549; settings: Homo sapiens; for EC50: 144 h, figure legends, survival of cultured A549 cells, MTT, six days after drug treatment, read-out: ED50 (the source's name); for IC50: read-out: concentration needed for 50% growth inhibition (ID50), Table 3, A549
Description: as §4, §1, §2

[6] = test system: human breast cancer cells MCF7; assay: MTT assay, survival/growth of cultured human breast cancer cells MCF7; settings: Homo sapiens; for EC50: 144 h, figure legends, survival of cultured MCF7 cells, MTT, six days after drug treatment, read-out: ED50 (the source's name); for IC50: read-out: concentration needed for 50% growth inhibition (ID50), Table 3, MCF7
Description: as §4, §1, §2

[7] = test system: human prostate cancer cells LNCAP; assay: MTT assay, survival/growth of cultured human prostate cancer cells LNCAP; settings: Homo sapiens, 144 h, figure legends, survival of cultured LNCAP cells, six days after drug treatment, read-out: ED50 (the source's name)
Description: as §1, §2, §3

[8] = read-out: concentration needed for 50% growth inhibition (ID50), Table 3, PC-3
[9] = read-out: concentration needed for 50% growth inhibition (ID50), Table 3
[10] = 144 h, figure legends, survival of cultured DUPRO cells, MTT, six days after drug treatment, read-out: ED50 (the source's name)
[11] = read-out: concentration needed for 50% growth inhibition (ID50), Table 3, DUPRO

Row | SMILES | EC50 [1] | IC50 [1, 8] | EC50 [2] | IC50 [2, 9] | EC50 [3, 10] | IC50 [3, 11] | IC50 [4] | EC50 [5] | IC50 [5] | EC50 [6] | IC50 [6] | IC50 [3, 10] | EC50 ([4]; HT-29, 144 h, figure legends, survival of cultured HT29 cells, MTT, six days after drug treatment, read-out: ED50 (the source's name)) | EC50 [7] | IC50 ([1]; Table 4, PC3, growth by MTT assay, read-out: IC50 (μM) in different cell lines) | IC50 ([2]; Table 4, DU145, growth by MTT assay, read-out: IC50 (μM) in different cell lines) | IC50 ([3]; Table 4, DUPRO, growth by MTT assay, read-out: IC50 (μM) in different cell lines)
1 | CCNCCCCNC/C=C\CNCCCCNCCCCNCC [SL-11122] | > 31200 nM | > 31.2 µM | 80 nM | 0.8 µM | 560 nM | 0.56 µM | 800 nM | > 31200 nM | > 31200 nM | > 31200 nM | > 31200 nM |  |  |  |  |  | 
2 | CCNCCCCNC/C=C\CNC/C=C\CNCCCCNCC [SL-11123] | > 31200 nM | > 31.2 µM | 510 nM | 0.51 µM |  | > 31.2 µM | 10400 nM | > 31200 nM | > 31200 nM | > 31200 nM | > 31200 nM | > 31.2 µM |  |  |  |  | 
3 | CCNC1CCCC1CNCCCNCC1CCCC1NCC (stereo not drawn) [SL-11124] | > 31200 nM | > 31.2 µM | > 31200 nM | > 31.2 µM | > 31200 nM | > 31.2 µM | > 31200 nM | > 31200 nM | > 31200 nM | > 31200 nM | > 31200 nM |  | > 31200 nM |  |  |  | 
4 | CCNC/C=C\CNC/C=C\CNCCCCNCCCCNCC [SL-11127] | > 31200 nM | > 31.2 µM | 220 nM | 0.22 µM | 1300 nM | 1.3 µM | 2910 nM |  |  |  |  |  |  |  |  |  | 
5 | CCNC/C=C\CNC/C=C\CNCCCCNC/C=C\CNCC [SL-11129] | 1700 nM | 1.7 µM | 320 nM |  |  |  |  |  |  |  |  | > 31.2 µM |  |  |  |  | 
6 | CCNC/C=C\CNC/C=C\CNC/C=C\CNCCCCNCC [SL-11130] | > 31200 nM | > 31.2 µM | 430 nM | 0.43 µM |  |  |  |  |  |  |  | > 31.2 µM |  |  |  |  | 
7 | CCNCCCNCCCNCC1CCCC1NCC (stereo not drawn) [SL-11132] | > 31200 nM |  | 15 nM |  | > 31200 nM |  |  |  |  |  |  |  |  |  |  |  | 
8 | CCNC/C=C\CNCCCCNC/C=C\CNCCCCNCC [SL-11133] | > 31200 nM |  | 340 nM |  |  |  |  |  |  |  |  | 31.2 µM |  |  |  |  | 
9 | CCNCCCCNCCCCNCCCCNCCCCNCCO [SL-11141] | > 31200 nM |  | 130 nM |  | 710 nM |  |  |  |  |  |  |  |  | 70 nM |  |  | 
10 | CCNCCCCNCCCCNCCCCNCCCCNC/C=C\CNCCCCNCCCCNCCCCNCCCCNCC [SL-11150] |  |  | 110 nM |  | 480 nM |  |  |  |  |  |  |  |  | 230 nM |  |  | 
11 | CCNCCCCNCCCCNCCCCNCCCC1=C(C)c2cc3[nH]c(cc4nc(cc5[nH]c(cc1n2)c(CCCNCCCCNCCCCNCCCCNCC)c5C)C(CC)=C4C)c(CC)c3C [SL-11202] |  |  |  |  |  |  |  |  |  |  |  |  |  |  | 1.15 µM | 4.6 µM | 1.3 µM
